Data on three compounds can be found in patent US20230348459A1, “PYRROLIDINE COMPOUND AND USE THEREOF” (SIMCERE PHARMACEUTICAL CO., LTD., priority 2020, published 2023).

The nature of data set [1]: Pharmacokinetic evaluation in mice. Particulars: CD-1 mice; for bioavailability: female, mouse, plasma, PO 10 mg/kg vs IV 1 mg/kg. Format: in vivo. How it is done:
Six female CD-1 mice (20-30 g, 4-6 weeks) were randomized into 2 groups, 3 mice/group. Group 1 was given the test compound via tail vein injection at a dose of 1 mg/kg, and the vehicle was 5% DMSO in 10% HP-β-CD in water, and group 2 was given the test compound orally at a dose of 10 mg/kg, and the vehicle was 40% Tetraethylene Glycol (v/v), 7.5% Captisol (w/v) in water. Prior to the experiment, the animals were given food and water as usual. Before administration and 0.083 (only for the vein injection group), 0.25, 0.5, 1, 2, 4, 6, 8 and 24 h after administration, blood was sampled from the veins of the mice in each group. The whole blood sample collected was placed in a K2EDTA anticoagulation tube and centrifuged for 5 min (12,000 rpm, 4° C.) and then the plasma was taken for later detection.
10 µL of the mouse plasma sample was taken and 150 µL of acetonitrile solvent (wherein internal standard compound was contained) was added to precipitate proteins. After the mixture was vortexed for 5 min, centrifugation (14,000 rpm) was performed for 5 min. The supernatant was diluted 2-fold with water containing 0.1% (v/v) FA and injected into the LC-MS/MS system (AB Sciex Triple Quad 6500+) for the quantitative detection. A calibration standard curve was prepared in CD-1 mouse plasma along with quality control samples to determine the plasma concentration. For the 10x diluted samples, 2 µL of the sample was taken and 18 µL of blank plasma was added. After the mixture was vortexed for 0.5 min, 300 µL of acetonitrile solvent (wherein an internal standard compound was contained) was added to precipitate proteins. The other processing steps were identical to those for the samples not diluted.

Data set [2] is described as follows: Plasma protein binding rate, equilibrium dialysis, mouse plasma. In kind it is in vitro ADME. To be noted: pH 7.4, CD-1 mouse plasma, 6 hours dialysis. How it is done: (§1) The protein binding rate of the compounds of the present invention in the plasma of five species (human, monkey, dog, rat and mouse) was determined by the following test method.
(§2) • 1. Human plasma (BioIVT), beagle dog plasma (BioIVT), SD rat plasma (BioIVT), CD-1 mouse plasma (BioIVT); • 2. 96-well equilibrium dialysis plate (HTDialysis LLC, Gales Ferry, CT, HTD96B), equilibrium dialysis membrane (MWCO 12-14 K, #1101); • 3. Positive control compound warfarin; • 4. ABI QTrap 5500 liquid chromatography-mass spectrometry.
(§3) 1. Preparation of a buffer with a concentration of 100 mM sodium phosphate and 150 mM NaCl: an alkaline solution with a concentration of 14.2 g/L Na2HPO4 and 8.77 g/L NaCl was prepared with ultrapure water, and an acidic solution with a concentration of 12.0 g/L NaH2PO4 and 8.77 g/L NaCl was prepared with ultrapure water. The alkaline solution was titrated with the acidic solution to pH 7.4 to prepare a buffer with a concentration of 100 mM sodium phosphate and 150 mM NaCl.
(§4) 2. Preparation of dialysis membrane: the dialysis membrane was soaked in ultrapure water for 60 minutes to separate the membrane into two pieces, then soaked in 20% ethanol for 20 minutes, and finally soaked in the buffer used for dialysis for 20 minutes.
(§5) 3. Preparation of plasma: the frozen plasma was quickly thawed at room temperature, then the plasma was centrifuged at 3,220 g at 4° C. for 10 min to remove clots, and the supernatant was collected into a new centrifuge tube. The pH of the plasma was measured and recorded, and the plasma with pH of 7-8 was used.
(§6) 3. Preparation of compound-containing plasma samples: 10 mM stock solution of compounds of the present invention or positive control compounds were diluted with DMSO to obtain 200 µM working solution. […]
(§7) The peak areas of the compounds on the buffer side and the plasma side were determined. […]
(§8) All the data was calculated by the Microsoft Excel software. The plasma protein binding rate values of the compounds of the present invention were calculated.
(In general: Equilibrium dialysis compares concentrations on both sides of a semipermeable membrane.)

Data set [3] can be described thus: Plasma protein binding rate, equilibrium dialysis, dog plasma. Format: in vitro ADME. Particulars: pH 7.4, Beagle dog plasma, 6 hours dialysis. The method, then:
as §1, §2, §3, §4, §5, §6, §7, §8

Data set [4] can be described thus: Plasma protein binding rate, equilibrium dialysis, human plasma. In kind it is in vitro ADME. To be noted: pH 7.4, 6 hours dialysis. How it is done: as §1, §2, §3, §4, §5, §6, §7, §8

In the case of `C[C@@H]1Cc2c([nH]c3ccccc23)C(c2c(F)cc(N[C@H]3CCN(CCCF)C3)cc2F)N1CC(F)(F)F` (stereo in doubt) [Example 4, (S)-N-(3,5-difluoro-4-((1S,3R)-3-methyl-2-(2,2,2-trifluoroethyl)-2,3,4,9-tetrahydro-1H-pyridino[3,4-b]indol-1-yl)phenyl)-1-(3-fluoropropyl)pyrrolidin-3-amine], the Drug exposure in data set [1] (IV 1 mg/kg) was 639 ng·h/mL; in data set [1] (PO 10 mg/kg), 3853 ng·h/mL. The results for the Maximum drug concentration in data set [1] (IV 1 mg/kg) and in data set [1] (PO 10 mg/kg) were 78 ng/mL and 222 ng/mL, respectively. Also, the “Time of half drug elimination” value in data set [1] (IV 1 mg/kg) is 21 h; in data set [1] (PO 10 mg/kg) it was 19 h. In data set [1] (PO 10 mg/kg), the “Time to peak drug concentration” value is reported as 5 h. This compound also registered a bioavailability in data set [1] of 60%. Besides, the fraction unbound at 6 h, 1 µM in data set [2], in data set [3] and in data set [4] was 0.002 in each case.

On to `C[C@@H]1Cc2c([nH]c3ccccc23)C(c2c(F)cc(N[C@H]3CCN(CCCF)C3)cc2F)N1CC(F)(F)CO` (stereo in doubt) [Example 7, 3-((1S,3R)-1-(2,6-difluoro-4-(((S)-1-(3-fluoropropyl)pyrrolidin-3-yl)amino)phenyl)-3-methyl-3,4-dihydro-1H-pyridino [3,4-b]indole-2(9H)-yl)-2,2-difluoropropane-1-ol], for which, in data set [1] (IV 1 mg/kg), the Drug exposure amounted to 879 ng·h/mL, the Maximum drug concentration was determined as 259 ng/mL and the “Time of half drug elimination” value was 5 h. In data set [1] (PO 10 mg/kg), the Drug exposure is 5447 ng·h/mL, the Maximum drug concentration came to 555 ng/mL, the “Time of half drug elimination” value is given as 4 h and the “Time to peak drug concentration” value stood at 1 h. Besides, the bioavailability in data set [1] amounted to 62%. The fraction unbound at 6 h, 1 µM in data set [2] is 0.012. Also, the fraction unbound at 6 h, 1 µM in data set [3] was 0.012. Further, in data set [4], the fraction unbound at 6 h, 1 µM was 0.005.

`C[C@@H]1Cc2c([nH]c3ccccc23)[C@@H](c2ccc(N[C@H]3CCN(CCCF)C3)cn2)N1CC(F)(F)F` [Example 3, N-((S)-1-(3-fluoropropyl)pyrrolidin-3-yl)-6-((1S,3R)-3-methyl-2-(2,2,2-trifluoroethyl)-2,3,4,9-tetrahydro-1H-pyridino[3,4-b]indol-1-yl)pyridine-3-amine]: in data set [1] (IV 1 mg/kg), the Drug exposure turned out to be 414 ng·h/mL, the Maximum drug concentration was found to be 98 ng/mL and the “Time of half drug elimination” value was 13 h. In addition, in data set [1] (PO 10 mg/kg), the Drug exposure turned out to be 2804 ng·h/mL, the Maximum drug concentration came to 219 ng/mL, the “Time of half drug elimination” value was determined as 9 h and the “Time to peak drug concentration” value is given as 3 h. The compound also returned a bioavailability in data set [1] of 68%. This compound showed a fraction unbound at 6 h, 1 µM in data set [2] of 0.019. Also, the fraction unbound at 6 h, 1 µM in data set [3] is 0.013. In data set [4], this compound showed a fraction unbound at 6 h, 1 µM of 0.012.

One may read the bioavailability as dose-corrected exposure relative to a reference, in per cent. A word on the fraction unbound: it is free concentration divided by total concentration. A high value points to much free substance.
